Measurements taken from PMC7006908 (PLoS ONE, 2020).
Several values for one entry are separate records, joined by “and”; a condition that tells them apart may be missing. Equal entries are not always repeated. Where two headings read alike, the source gives them in different places.

What was measured:
[1] = LC-MS/MS quantification of Cmin in plasma samples from breast cancer patients (clinical study CRO-2018-83); format: in vivo, human; conditions: for concentration at 25 h / concentration at 1 week / concentration at 15 h / concentration at 30 h: human, plasma, oral; for concentration at 25 h / concentration at 1 week: 125 mg/day; for concentration at 25 h: patient 2, sample 3, PALBO 125 mg/day; for concentration at 1 week: patient 3, sample 4, PALBO 125 mg/day; for concentration at 15 h: patient 7, sample 9, PALBO 125 mg/day; for concentration at 30 h: patient 8, sample 10, RIBO 600 mg/day + LETRO 2.5 mg/day
Method: Preparation of calibration curve and QCs samples was conducted through the following steps: 1) 5 μL of working solutions were added to 95 μL of blank human plasma (dilution 1:20) and vortexed for 10 s; 2) a 10 μL-aliquot of this mix was added with 80 μL of cold IS working solution (see “Standard solutions preparation” section), vortexed and then centrifuged for 15 min at 16200 g and 4°C; 3) 70 μL of the supernatant were transferred to a polypropylene tube for the following analysis. […] The preparation of patients’ samples was conducted as following: patient plasma was thawed at room temperature, vortexed for 10 s and centrifuged, for 10 min, at 3000 g and 4°C; 10 μL of plasma was then treated according to steps 2) and 3).
The HPLC system was a SIL-20AC XR auto-sampler and LC-20AD UFLC XR pumps (Shimadzu, Tokyo, Japan). The mobile phases (MP) consisted of ultrapure water with 0.1% HCOOH (phase A) and methanol/isopropanol (9:1, v/v) with 0.1% HCOOH (phase B). The chromatographic separation was obtained on the Luna Omega Polar C18 column ([…], 100 Å, 50 x 2.1 mm) coupled with a Security Guard Cartridge (Polar, C18, 4 x 2.0 mm), both provided by Phenomenex (Castel Maggiore (BO), Italy). The mass spectrometry system used for the detection was an API 4000 triple quadrupole (AB SCIEX, Massachusetts, USA) with a TurboIonSpray source operating in positive ion mode. To optimize source and compound dependent parameters, solutions of each analyte at the concentration of 100 ng/mL were used with a flow rate of 20 μL/min. Data were processed with Analyst 1.6.3 and the quantification of the peaks was done with MultiQuant 2.1 (software package AB SCIEX).
The exclusion criteria were to be non-collaborative and/or unreliable patients and refusal of informed consent. Patients were asked to periodically (every two months) collect plasma samples for the estimation of PALBO or RIBO and/or LETRO Cmin during their therapy treatment.
Plasma was obtained immediately by centrifugation of the blood samples at 3000 g for 10 min at 4°C. Then the obtained plasma was split into two independent aliquots and stored at -80°C in two different freezers.
At present, each of the 10 patients’ samples collected were quantified in 2 separate runs during 2 different working days, to further assess the reproducibility of the proposed method. In fact, as recently introduced in the last version of the FDA guideline, incurred samples re-analysis (ISR) is necessary to show the reliability of the reported analyte concentrations obtained with a bioanalytical method. ISR is conducted by repeating the analysis of a subset of patients’ samples in separate runs. The two analyses can be considered equivalent if the percentage difference [expressed as: (repeat-original)*100/mean] between the first and the second concentration measured is within ±20% for at least 67% of the samples [23, 24].

[2] = Long term stability of working solutions in methanol at -20°C; format: physicochemical; conditions: for Acc. %, stored at -20ºC over 2 months (methanol): % of nominal
[3] = Stability of deproteinized QCs in autosampler at 4 °C; format: physicochemical; conditions: for Acc. %, T = 72 h in autosampler (4°C): % of nominal
Method: (§1) Stability tests were conducted using QCs prepared in triplicate at each concentration (L, M, H): bench-top stability was investigated after 4 h at room temperature; stability of the deproteinized QCs was evaluated in autosampler set at 4 °C re-analysing the samples 24, 48, and 72 h after the first injection; freeze/thaw stability was assessed by analysing three freshly prepared aliquots of each QCs concentration, and then again after one and two freeze/thaw cycles.

[4] = Bench-top stability in human plasma, 4 h at room temperature; format: in vitro ADME
Method: as §1

[5] = Long term stability in human plasma at -80°C; format: in vitro ADME; conditions: for Acc. %, stored at -80ºC over 2 months (plasma): % of nominal
[6] = patients, cited from earlier work
[7] = reanalysis in second run, read-out: II quantif. plasma concentration (Cmin)
[8] = QC high: nominal 200.00 PALBO / 8000.00 RIBO / 400.00 LETRO ng/mL
[9] = QC low: nominal 0.50 PALBO / 20.00 RIBO / 1.00 LETRO ng/mL
[10] = QC medium: nominal 20.00 PALBO / 800.00 RIBO / 40.00 LETRO ng/mL
[11] = deproteinized QC high: nominal 200.00 PALBO / 8000.00 RIBO / 400.00 LETRO ng/mL
[12] = deproteinized QC low: nominal 0.50 PALBO / 20.00 RIBO / 1.00 LETRO ng/mL
[13] = deproteinized QC medium: nominal 20.00 PALBO / 800.00 RIBO / 40.00 LETRO ng/mL

For CC(=O)c1c(C)c2cnc(Nc3ccc(N4CCNCC4)cn3)nc2n(C2CCCC2)c1=O [PALBO, Palbociclib], the concentration at 25 h ([1]; 25 h from last capsule intake, read-out: I quantif. plasma concentration (Cmin)) was 77.5 ng/mL, the concentration at 25 h [1, 7] was 82.4 ng/mL and the concentration at 1 week ([1]; last PALBO intake 1 week before sampling, read-out: I quantif. plasma concentration (residual)) was 1.6 ng/mL. For the same compound, the concentration at 1 week ([1]; last intake 1 week before sampling, reanalysis in second run, read-out: II quantif. plasma concentration (residual)) was 1.5 ng/mL, the concentration at 15 h ([1]; LETRO 2.5 mg/day, last pill intake 15 h before sampling, read-out: I quantif. plasma concentration (Cmin)) was 97.9 ng/mL and the concentration at 15 h ([1]; LETRO 2.5 mg/day, reanalysis in second run, read-out: II quantif. plasma concentration (Cmin)) was 96.2 ng/mL. For the same compound, the “I quantif. plasma concentration (Cmin)” value ([1]; patient 1, sample 1, PALBO 125 mg/day) was 53.0 ng/mL, the “II quantif. plasma concentration (Cmin)” value ([1]; patient 1, sample 1, PALBO 125 mg/day, reanalysis in second run) was 55.9 ng/mL and the “I quantif. plasma concentration (Cmin)” value ([1]; patient 2, sample 2, PALBO 125 mg/day) was 76.9 ng/mL. The “II quantif. plasma concentration (Cmin)” value ([1]; patient 2, sample 2, PALBO 125 mg/day, reanalysis in second run) was 84.2 ng/mL, the “I quantif. plasma concentration (Cmin)” value ([1]; patient 4, sample 5, PALBO 100 mg/day) was 70.7 ng/mL and the “II quantif. plasma concentration (Cmin)” value ([1]; patient 4, sample 5, PALBO 100 mg/day, reanalysis in second run) was 74.3 ng/mL. For the same compound, the “I quantif. plasma concentration (Cmin)” value ([1]; patient 5, sample 6, PALBO 125 mg/day) was 39.5 ng/mL, the “II quantif. plasma concentration (Cmin)” value ([1]; patient 5, sample 6, PALBO 125 mg/day, reanalysis in second run) was 43.0 ng/mL and the “I quantif. plasma concentration (Cmin)” value ([1]; patient 5, sample 7, PALBO 125 mg/day) was 41.5 ng/mL. The “II quantif. plasma concentration (Cmin)” value ([1]; patient 5, sample 7, PALBO 125 mg/day, reanalysis in second run) was 46.1 ng/mL, the “I quantif. plasma concentration (Cmin)” value ([1]; patient 6, sample 8, PALBO 125 mg/day, LETRO 2.5 mg/day) was 69.7 ng/mL and the “II quantif. plasma concentration (Cmin)” value ([1]; patient 6, sample 8, PALBO 125 mg/day, LETRO 2.5 mg/day, reanalysis in second run) was 74.0 ng/mL. The “Mean ± SD measured concentration, stored at -20ºC over 2 months (methanol)” value (“Mean ± SD … over 2 months (methanol)” below) [2, 8] was 219.18 ± 9.46 ng/mL, the “Acc. %, stored at -20ºC over 2 months (methanol)” value (shortened to “Acc. %, stored at -20ºC”) [2, 8] was 109.6% and the “Mean ± SD … over 2 months (methanol)” value [2, 9] was 0.52 ± 0.02 ng/mL. For the same compound, the “Mean ± SD … over 2 months (methanol)” value [2, 10] was 22.43 ± 0.63 ng/mL, the “Mean ± SD measured concentration, T = 72 h in autosampler (4°C)” value (“Mean ± SD measured concentration … (4°C)” for short) [3, 11] was 215.60 ± 8.28 ng/mL and the “Acc. %, T = 72 h in autosampler (4°C)” value [3, 11] was 107.8%. For the same compound, the “Mean ± SD measured concentration … (4°C)” value [3, 12] was 0.54 ± 0.02 ng/mL, the “Acc. %, T = 72 h in autosampler (4°C)” value [3, 12] was 108.2% and the “Mean ± SD measured concentration … (4°C)” value [3, 13] was 21.10 ± 1.23 ng/mL. For the same compound, the “Acc. %, T = 72 h in autosampler (4°C)” value [3, 13] was 105.5%.
In the case of CN(C)C(=O)c1cc2cnc(Nc3ccc(N4CCNCC4)cn3)nc2n1C1CCCC1 [RIBO, ribociclib], the “Mean ± SD measured concentration, T = 4h (RT)” value (shortened to “Mean ± SD … (RT)”) ([4]; plasma QC high: nominal 200.00 PALBO / 8000.00 RIBO / 400.00 LETRO ng/mL) is reported as 7218.92 ± 402.94 ng/mL, the “Mean ± SD … (RT)” value ([4]; plasma QC low: nominal 0.50 PALBO / 20.00 RIBO / 1.00 LETRO ng/mL) is reported as 18.86 ± 0.74 ng/mL and the “Mean ± SD … (RT)” value ([4]; plasma QC medium: nominal 20.00 PALBO / 800.00 RIBO / 40.00 LETRO ng/mL) is reported as 751.88 ± 27.56 ng/mL. For the same compound, the “Mean ± SD measured concentration, stored at -80ºC over 2 months (plasma)” value (“Mean ± SD … over 2 months (plasma)” below) [5, 8] was 7699.21 ± 117.73 ng/mL, the “Acc. %, stored at -80ºC over 2 months (plasma)” value (from here on “Acc. %, stored at -80ºC”) [5, 8] was 96.2% and the “Mean ± SD … over 2 months (plasma)” value [5, 9] was 21.10 ± 1.05 ng/mL. The “Acc. %, stored at -80ºC” value [5, 9] was 105.5%, the “Mean ± SD … over 2 months (plasma)” value [5, 10] was 789.37 ± 28.89 ng/mL and the “Acc. %, stored at -80ºC” value [5, 10] was 98.7%. For the same compound, the concentration at 30 h ([1]; 30 h from last pills intake, read-out: I quantif. plasma concentration (Cmin)) was 396 ng/mL, the concentration at 30 h [1, 7] was 419 ng/mL and the “Mean ± SD … over 2 months (methanol)” value [2, 8] was 8522.63 ± 68.65 ng/mL. For the same compound, the “Acc. %, stored at -20ºC” value [2, 8] was 106.5%, the “Mean ± SD … over 2 months (methanol)” value [2, 9] was 19.52 ± 0.30 ng/mL and the “Acc. %, stored at -20ºC” value [2, 9] was 97.6%. For the same compound, the “Mean ± SD … over 2 months (methanol)” value [2, 10] was 885.44 ± 35.25 ng/mL, the “Acc. %, stored at -20ºC” value [2, 10] was 110.7% and the “Mean ± SD measured concentration … (4°C)” value [3, 11] was 8274.93 ± 207.29 ng/mL. For the same compound, the “Acc. %, T = 72 h in autosampler (4°C)” value [3, 11] was 103.4%, the “Mean ± SD measured concentration … (4°C)” value [3, 12] was 21.24 ± 1.45 ng/mL and the “Acc. %, T = 72 h in autosampler (4°C)” value [3, 12] was 106.2%. The “Mean ± SD measured concentration … (4°C)” value [3, 13] was 815.31 ± 36.72 ng/mL, the “Acc. %, T = 72 h in autosampler (4°C)” value [3, 13] was 101.9% and the “in vivo RIBO plasma concentration (CV), Cmin, population mean” value ([6]; 20 (ref 19)) was 711 ng/mL and 711 (72.9) ng/mL. For the same compound, the “in vivo RIBO plasma concentration (CV), upper end of range” value [6] was 3500 (65.8) ng/mL.
